Assay in all cases: DTP human tumour cell line panel, 48 h
The subject of experiment [1] is HT29 colon.
Experiment [2] relates to MOLT-4 leukemia.
For experiment [3], the system named is ACHN renal.
In experiment [4] the test system is UO-31 renal.
Experiment [5] relates to OVCAR-5 ovarian.
Experiment [6] concerns A549 NSCLC.
The subject of experiment [7] is OVCAR-3 ovarian.
The test system of experiment [8] is NCI/ADR-RES ovarian.
The subject of experiment [9] is MDA-MB-435.
Experiment [10] relates to CAKI-1 renal.

From PubChem BioAssay (NCI) come the findings set out here.

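Where inhibition never reached the appropriate level, the endpoint shown equals the highest concentration tested. Otherwise, values were interpolated linearly from a five-concentration, 48-hour dose response in 96-well plates. Abbreviation: GI50, concentration required for 50% inhibition of growth. TGI: concentration producing complete growth inhibition.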

For the compound `COc1ccc(/C=C/c2cc(O)cc(OC3OC(CO)C(O)C(O)C3O)c2)cc1O` (stereo not drawn), the total growth inhibition concentration (TGI) in experiment [1], in experiment [2], in [3], in experiment [4], in experiment [5] and in experiment [6] was over 100 µM in each case. The total growth inhibition concentration (TGI) in [7], in [8], in experiment [9] and in [10] was over 100 µM each time.
Take `Nc1ccc(C2(c3ccc(N)cc3)C3CC4CC(C3)CC2C4)cc1`: the TGI – broadly, the concentration at which net growth stops – in experiment [1] is 26.3 µM; in experiment [2] it was 28.2 µM; in [3] it was 32.7 µM; in experiment [4], 33.9 µM; in experiment [5], 32.7 µM; in experiment [7] it was 25.1 µM. The values for the concentration for total growth inhibition (TGI) in experiment [8], in experiment [9] and in experiment [10] were 23.4 µM, 31.5 µM and 31.9 µM, respectively.
On to `O=C(N[C@H](CO)[C@H](O)c1ccc([N+](=O)[O-])cc1)C(Cl)Cl`, for which the TGI in experiment [1], in [2], in [3], in experiment [4], in experiment [5] and in experiment [6] was over 100 µM in each case. Also, the concentration for total growth inhibition (TGI) in [7], in experiment [8], in experiment [9] and in [10] was over 100 µM in each case.
As to `OCC1NC(CO)C(O)C1O` (stereo not drawn), the TGI in [1], in experiment [2], in experiment [4], in experiment [5], in experiment [7] and in [8] was over 100 µM in each case. The TGI in experiment [9] and in [10] was over 100 µM each time.
Take `COc1ncnc2c(Cl)c(C(O)c3ccccc3)c(Cl)cc12` (stereo not drawn): the TGI in experiment [1] is over 100 µM; in experiment [2] it was over 100 µM; in [3] it was 97.2 µM; in experiment [4], over 100 µM; in experiment [5], over 100 µM; in experiment [6] it was over 100 µM. Moreover, the TGI was over 100 µM in experiment [7], over 100 µM in experiment [8], 21.3 µM in experiment [9] and over 100 µM in [10].
`CCOP(=O)(OCC)C(Cc1c[nH]c2ccccc12)C(=O)O` (stereo not drawn): the TGI in experiment [1], in experiment [2], in experiment [3], in experiment [4], in [5] and in experiment [6] was over 100 µM each time. Besides, the TGI in experiment [7], in experiment [8], in experiment [9] and in [10] was over 100 µM in each case.
With `O=S1(=O)C[C@H](NCc2ccccc2)[C@H](NCc2ccccc2)C1`, the total growth inhibition concentration (TGI) in [1], in experiment [2], in experiment [3], in [4], in [5] and in experiment [6] was over 100 µM each time. In addition, the TGI in experiment [7], in experiment [8], in experiment [9] and in experiment [10] was over 100 µM throughout.
With `O=Nn1c2ccccc2c2ccccc21`, the TGI in experiment [1], in [2], in experiment [3], in experiment [4], in experiment [5] and in experiment [6] was over 100 µM throughout. For the same compound, the TGI in experiment [7], in [8], in [9] and in experiment [10] was over 100 µM throughout.
Take `CC(C)N(CCNc1nc(C(Cl)(Cl)Cl)nc2cc(Cl)ccc12)C(C)C`: the GI50 – broadly, the concentration at which growth is held to half of that of the control – is 0.523 µM in experiment [1]; 1.29 µM in [3]; 1.16 µM in experiment [5]; 1.67 µM in experiment [6]; 1.68 µM in experiment [7]; 1.54 µM in [8]. The GI50 was 1.71 µM in experiment [9] and 1.6 µM in experiment [10]. In addition, the TGI worked out at 1.85 µM in [1]; 2.66 µM in experiment [3]; 2.48 µM in experiment [5]; 3.15 µM in experiment [6]; 3.66 µM in experiment [7]; 3.39 µM in experiment [8]. Moreover, the concentration for total growth inhibition (TGI) in experiment [9] came out at 3.47 µM; in [10], 3.17 µM.
On to `CCOC(=O)CCCc1cc(=O)c2c(C)c3[nH]c4ccc(Cl)cc4c3c(C)c2[nH]1`, for which the total growth inhibition concentration (TGI) is 53.8 µM in experiment [1]; over 100 µM in experiment [2]; 80.3 µM in [3]; 45.4 µM in [4]; over 100 µM in experiment [5]; 43.5 µM in [6]. The TGI in experiment [7] is 34.4 µM; in experiment [8] it was 66.2 µM; in experiment [9] it was 47.8 µM; in experiment [10], 43.2 µM.
Consider `Fc1ccc(C2CC(c3cccc(Nc4ccncc4)c3)=NN2c2ccccc2)cc1` (stereo not drawn), for which the GI50 is 2.13 µM in experiment [1]; 2.47 µM in [2]; 1.71 µM in [3]; 1.45 µM in [4]; 2.18 µM in experiment [5]; 1.75 µM in experiment [7]. The GI50 in [8] was 1.65 µM; in experiment [9], 1.63 µM; in experiment [10], 1.6 µM. In addition, the TGI in experiment [1] was found to be 5.09 µM; in [2], 5.81 µM; in experiment [3], 3.11 µM; in [4] it was 2.86 µM; in experiment [5], 5.27 µM; in [7] it was 3.24 µM. Further, the concentration for total growth inhibition (TGI) amounted to 3.13 µM in [8], 3.14 µM in experiment [9] and 3.02 µM in experiment [10].
As to `CC=C/C=C/[C@@H]1O[C@](O)([C@H](CC)C(=O)NC/C=C/C=C(\C)[C@@H](OC)[C@@H](C)[C@@H]2O[C@H](/C=C/C=C/C=C(\C)C(=O)c3c(O)cc[nH]c3=O)[C@H](O)[C@@H]2O)[C@H](O)[C@H](O)C1(C)C`, the total growth inhibition concentration (TGI) in experiment [1], in experiment [2], in experiment [3], in [4], in experiment [5] and in experiment [6] was over 100 µM throughout. The TGI in experiment [7], in [8] and in [9] was over 100 µM throughout.
`O=C(Nc1ccc(C(F)(F)F)cc1[N+](=O)[O-])C(=O)Nn1c(=S)[nH]c2ccccc2c1=O`: the total growth inhibition concentration (TGI) in experiment [1], in experiment [2], in experiment [3], in [4], in experiment [5] and in experiment [6] was over 100 µM throughout. In [10], the TGI is over 100 µM.
As for `Cc1ccc(S(=O)(=O)NCCCSCCN)cc1`, the total growth inhibition concentration (TGI) in experiment [1], in [2], in experiment [3], in experiment [4], in experiment [6] and in experiment [7] was over 100 µM each time. Further, the TGI in experiment [8] and in experiment [9] was over 100 µM each time.
With `Nc1nc(N)c(N=Nc2ccccc2)c(=O)[nH]1`, the TGI in experiment [1] is over 100 µM; in experiment [2] it was over 100 µM; in [3], 96.7 µM; in experiment [4] it was over 100 µM; in [5], over 100 µM; in [6] it was over 100 µM. The TGI in [7] and in experiment [10] was over 100 µM each time.
